Measurements taken from US20200247815A1, “PYRAZOLYL-CONTAINING TRICYCLIC DERIVATIVE, PREPARATION METHOD THEREFOR AND USE THEREOF” (Jiangsu Hansoh Pharmaceutical Group Co., Ltd., priority 2017, published 2020).

What was measured:
[1] = Pharmacokinetics assay in mice (oral, plasma); assay type: in vivo, Balb/c Mouse; settings: for Exposure in mouse plasma: dose of 50 mg/kg, oral; for Cmax / MRT / Tmax / half-life / AUC(0-t): mouse, male Balb/c mice, PO 50 mg/kg, plasma; for AUC(0-t): read-out: AUC0-24
Experimental: Balb/c Mouse was used as the test animal. The pharmacokinetic behavior of compounds of Example 1, 2 and 7 administrated orally was studied in mice (plasma).
170 g of PEG400 and 20 g of Solutol HS-15 were added to a 250 mL glass flask, and then 10 mL of NMP was added. The solution was mixed well by ultrasound for 10 minutes to obtain a clear solution.
11.2 mg of the compound of Example 1, 10.8 mg of the compound of Example 2 and 9.8 mg of the compound of Example 7 were weighted to a 4 mL glass flasks respectively, […], 2.160 mL and […] of the above solution were treated by ultrasound for 10 minutes to obtain a colorless clear solution with a concentration of 5 mg/mL.
After fasting overnight, the male Balb/c mice were administrated with the compounds (PO), the dose was 50 mg/kg, and the administration volume was 10 mL/kg.
Blood was taken before administration and at 0.25, 0.5, 1, 2, 4, 6, 8 and 24 hours after administration. The blood samples were stored in EDTA-2K tubes, and centrifuged for 6 minutes to separate the blood plasma. The plasma samples were stored at −80° C.

ERK-1 kinase = target: T1, ERK-1 kinase (Homo sapiens, UniProt P27361); assay: Inhibition of ERK-1 kinase activity (LANCE Ultra TR-FRET); assay type: biochemical; settings: ERK1 enzyme 0.4 nM, ATP 38.15 μM
T1 construct: purchased Invitrogen PV3311
How it was run: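 Reactions contained 0.4 nM ERK1, 0.5 μM Ulight-MBP peptide and 38.15 μM ATP in pH 7.4 Hepes/MgCl2 buffer with 4% DMSO and ran 60 minutes at room temperature. Detection used Eu-anti-p-MBP with a 665/615 nm TR-FRET ratio, normalised to DMSO and no-enzyme controls. Final concentrations were 100 nM to 0.005 nM, and IC50 came from a 4-parameter fit.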

hERG potassium channel = target: T2, hERG potassium channel (Homo sapiens, UniProt Q12809); assay: hERG potassium channel inhibition activity test (Qpatch, CHO-hERG cells); assay type: cell-based
T2 construct: expressed in transfected cells; host or cells: CHO-hERG cells
Experimental: 4.1.1 CHO-hERG cells were cultured in a 175 cm2 culture flask. After the cell density reached 60˜80%, the culture solution was removed. The cells were washed with 7 mL of PBS once, and dissociated with 3 mL of Detachin.
4.1.2 After completion of dissociation, the cells were neutralized with 7 mL of culture solution. The solution was centrifuged, and the supernate was removed. The cells were resuspended in 5 mL of culture solution. The cell indensity is ensured as […].
Single cell sealing impedance and formation of whole-cell mode were automatically performed by Qpatch instrument. After obtaining the whole-cell recording mode, the cell was clamped at −80 mV. The cell first underwent pre-voltage of −50 mV for 50 msec, then underwent depolarization stimulation at +40 mV for 5 sec, and then underwent repolarization at −50 mV for 5 sec. and then the voltage returned to −80 mV. The cell underwent the stimulation at the voltage every 15 sec, and the data were recorded for 2 min, then extracellular fluid was administrated, and then the data were recorded for 5 min. Then, the administration process begun. The concentration of the test compound started from the lowest concentration, each test concentration was administrated for 2.5 min. At least three cells were tested for each concentration.
4.4.1 20 mM mother liquor of the compound was diluted with extracellular fluid, 5 uL of 20 mM mother liquor of the compound was added with 2495 uL of extracellular fluid to obtain a concentration of 40 uM (500-fold dilution). The solution was subjected to a 3-fold serial dilution with extracellular fluid containing 0.2% DMSO to obtain a required final concentration.
This concentration of DMSO had no effect on hERG potassium channel.
The experimental data was analyzed by XLFit software.

T2 sequence (Q12809 whole entry): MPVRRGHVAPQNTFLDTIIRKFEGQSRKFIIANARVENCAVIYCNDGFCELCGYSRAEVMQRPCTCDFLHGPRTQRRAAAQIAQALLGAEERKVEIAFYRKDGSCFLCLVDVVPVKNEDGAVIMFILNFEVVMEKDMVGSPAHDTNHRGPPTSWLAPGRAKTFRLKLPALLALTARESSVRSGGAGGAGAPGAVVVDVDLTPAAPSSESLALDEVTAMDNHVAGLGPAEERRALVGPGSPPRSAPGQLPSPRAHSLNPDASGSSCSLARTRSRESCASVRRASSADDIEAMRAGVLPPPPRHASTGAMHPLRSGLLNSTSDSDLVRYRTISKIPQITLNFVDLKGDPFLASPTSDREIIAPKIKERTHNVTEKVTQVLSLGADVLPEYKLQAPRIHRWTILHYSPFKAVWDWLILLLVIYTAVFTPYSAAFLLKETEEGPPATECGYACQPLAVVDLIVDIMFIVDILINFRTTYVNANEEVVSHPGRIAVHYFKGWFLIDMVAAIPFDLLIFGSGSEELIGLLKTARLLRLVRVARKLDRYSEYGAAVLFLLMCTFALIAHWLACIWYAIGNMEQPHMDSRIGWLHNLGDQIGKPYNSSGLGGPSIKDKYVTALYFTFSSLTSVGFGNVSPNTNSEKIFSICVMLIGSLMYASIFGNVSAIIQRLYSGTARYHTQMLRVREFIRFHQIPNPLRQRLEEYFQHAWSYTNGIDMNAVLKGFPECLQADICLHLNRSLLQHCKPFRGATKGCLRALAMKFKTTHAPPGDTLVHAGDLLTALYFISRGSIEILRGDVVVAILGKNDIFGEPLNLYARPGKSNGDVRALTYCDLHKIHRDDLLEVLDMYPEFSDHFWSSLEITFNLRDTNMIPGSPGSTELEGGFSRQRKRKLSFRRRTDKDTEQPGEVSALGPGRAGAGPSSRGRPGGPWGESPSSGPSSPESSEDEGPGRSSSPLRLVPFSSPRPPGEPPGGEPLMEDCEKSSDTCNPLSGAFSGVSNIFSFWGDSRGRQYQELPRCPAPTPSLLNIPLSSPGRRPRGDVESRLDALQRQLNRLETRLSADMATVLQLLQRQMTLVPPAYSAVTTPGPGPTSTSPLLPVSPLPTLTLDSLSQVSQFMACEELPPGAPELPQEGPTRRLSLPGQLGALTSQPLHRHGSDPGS
T1 sequence (P27361 whole entry): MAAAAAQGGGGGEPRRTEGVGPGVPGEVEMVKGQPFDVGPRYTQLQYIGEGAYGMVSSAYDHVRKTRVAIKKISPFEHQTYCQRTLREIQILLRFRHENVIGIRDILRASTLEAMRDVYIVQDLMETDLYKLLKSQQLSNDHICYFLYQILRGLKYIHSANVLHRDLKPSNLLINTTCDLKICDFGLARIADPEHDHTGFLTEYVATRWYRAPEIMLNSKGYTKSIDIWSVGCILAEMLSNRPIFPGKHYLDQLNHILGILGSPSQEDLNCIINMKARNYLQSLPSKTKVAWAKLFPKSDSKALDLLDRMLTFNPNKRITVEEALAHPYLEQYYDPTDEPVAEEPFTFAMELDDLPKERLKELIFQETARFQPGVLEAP

| Exposure in mouse plasma [1] | Cmax [1] | MRT [1] | Tmax [1] | half-life [1] | AUC(0-t) [1] | IC50 (ERK-1 kinase) | SMILES | Inhibition effect on cardiac hERG potassium channel (hERG potassium channel) | IC50 (hERG potassium channel; CHO-hERG cells, highest test concentration 40 uM, read-out: hERG (inhibition effect on hERG current)) |
| --- | --- | --- | --- | --- | --- | --- | --- | --- | --- |
| good exposure | 1310 ng/mL | 8.99 h | 0.5 h | 6.59 h | 14700 ng·h/mL | 0.29 nM | C[C@@H](NC(=O)c1cc2cc3c(-c4ccncc4)n[nH]c3cc2[nH]1)c1ccccc1 [Example 1, (R)—N-(1-phenylethyl)-3-(pyridin-4-yl)-1,7-dihydropyrrolo[3,2-f]indazole-6-carboxamide] |  |  |
| good exposure | 15900 ng/mL | 2.44 h | 2 h | 0.82 h | 50400 ng·h/mL | 0.42 nM | C[C@@H](NC(=O)c1nc2cc3c(-c4ccncc4)n[nH]c3cc2[nH]1)c1ccccc1 [Example 2, (R)—N-(1-phenylethyl)-3-(pyridin-4-yl)-1,7-dihydroimidazo[4,5-f]indazole-6-carboxamide] | no inhibition effect | > 40000 nM |
